We go through four compounds from patent publication US11339161B2, “Triazolo pyridines as modulators of gamma-secretase” (Boehringer Ingelheim International GmbH, priority 2017, dated 2022).

For one test, the system named is panel of 15 kinases. Put plainly: Z'-LYTE SelectScreen kinase panel: number of kinases with <40% inhibition. It is filed as biochemical. The conditions noted are these: of 15 kinases tested; 10 μmolar compound; ATP at Km app.
The next test addresses T1, AURKA (Aurora A) (Homo sapiens, UniProt O14965).
T1 sequence (O14965 1-403): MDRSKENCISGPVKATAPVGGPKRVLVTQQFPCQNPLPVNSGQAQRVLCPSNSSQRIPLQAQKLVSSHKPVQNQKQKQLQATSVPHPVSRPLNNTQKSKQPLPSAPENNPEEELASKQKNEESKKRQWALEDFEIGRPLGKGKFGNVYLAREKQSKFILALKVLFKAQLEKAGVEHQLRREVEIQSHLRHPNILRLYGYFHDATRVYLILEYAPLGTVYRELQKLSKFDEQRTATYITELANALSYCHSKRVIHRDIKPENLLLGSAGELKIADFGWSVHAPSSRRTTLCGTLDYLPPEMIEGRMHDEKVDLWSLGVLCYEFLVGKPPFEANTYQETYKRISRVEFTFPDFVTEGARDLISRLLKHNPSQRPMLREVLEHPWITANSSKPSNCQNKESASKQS
In words: Z'-LYTE SelectScreen biochemical kinase assay AURKA (Aurora A).

A further test concerns the target ABL1 (Homo sapiens, UniProt P00519). In words: Z'-LYTE SelectScreen biochemical kinase assay ABL1.
In a further test the target is FGFR1 (Homo sapiens, UniProt P11362). In words: Z'-LYTE SelectScreen biochemical kinase assay FGFR1.
The mark [1] stands for this setting: 10 μmolar compound concentration, ATP at Km app, read-out: AURKA (Aurora A) inhibition.
The mark [2] stands for this setting: read-out: % Inhibition mean AURKA (Aurora A).
Setting [3] is: 10 μmolar compound concentration, ATP at Km app, read-out: ABL1 inhibition.
The mark [4] stands for this setting: read-out: % Inhibition mean ABL1.
The mark [5] stands for this setting: 10 μmolar compound concentration, ATP at Km app, read-out: FGFR1 inhibition.
The mark [6] stands for this setting: read-out: % Inhibition mean FGFR1.

Where two headings read alike, the source gives them in different places.

ABL1, sequence (P00519 whole entry): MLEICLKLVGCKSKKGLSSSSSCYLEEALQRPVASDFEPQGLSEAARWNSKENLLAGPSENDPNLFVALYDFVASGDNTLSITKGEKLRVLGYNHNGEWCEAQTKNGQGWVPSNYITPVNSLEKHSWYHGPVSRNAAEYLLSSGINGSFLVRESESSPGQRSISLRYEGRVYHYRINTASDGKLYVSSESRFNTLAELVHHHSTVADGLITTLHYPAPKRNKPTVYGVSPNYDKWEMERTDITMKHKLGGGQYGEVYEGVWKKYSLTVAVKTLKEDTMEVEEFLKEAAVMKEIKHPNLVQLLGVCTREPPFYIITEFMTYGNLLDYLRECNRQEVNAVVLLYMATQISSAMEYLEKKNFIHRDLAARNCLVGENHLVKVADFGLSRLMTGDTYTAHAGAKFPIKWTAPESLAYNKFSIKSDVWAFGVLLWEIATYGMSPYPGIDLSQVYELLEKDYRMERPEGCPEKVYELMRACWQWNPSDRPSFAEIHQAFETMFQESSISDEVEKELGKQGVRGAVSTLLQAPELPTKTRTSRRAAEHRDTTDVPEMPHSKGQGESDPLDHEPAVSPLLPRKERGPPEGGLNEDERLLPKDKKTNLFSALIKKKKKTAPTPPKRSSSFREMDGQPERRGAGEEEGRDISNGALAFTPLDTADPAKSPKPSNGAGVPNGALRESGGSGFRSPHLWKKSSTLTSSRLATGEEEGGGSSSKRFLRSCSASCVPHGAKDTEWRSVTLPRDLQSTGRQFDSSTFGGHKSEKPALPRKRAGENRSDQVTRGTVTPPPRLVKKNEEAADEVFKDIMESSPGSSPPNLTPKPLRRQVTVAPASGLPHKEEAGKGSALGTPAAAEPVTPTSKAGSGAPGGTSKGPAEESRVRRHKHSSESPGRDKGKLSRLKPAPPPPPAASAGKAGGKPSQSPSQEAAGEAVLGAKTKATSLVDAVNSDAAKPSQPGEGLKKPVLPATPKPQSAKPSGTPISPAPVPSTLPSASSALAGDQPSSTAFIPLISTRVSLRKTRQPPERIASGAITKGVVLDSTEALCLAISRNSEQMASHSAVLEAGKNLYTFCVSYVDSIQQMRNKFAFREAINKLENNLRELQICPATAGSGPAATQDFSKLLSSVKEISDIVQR
FGFR1, sequence (P11362 22-822): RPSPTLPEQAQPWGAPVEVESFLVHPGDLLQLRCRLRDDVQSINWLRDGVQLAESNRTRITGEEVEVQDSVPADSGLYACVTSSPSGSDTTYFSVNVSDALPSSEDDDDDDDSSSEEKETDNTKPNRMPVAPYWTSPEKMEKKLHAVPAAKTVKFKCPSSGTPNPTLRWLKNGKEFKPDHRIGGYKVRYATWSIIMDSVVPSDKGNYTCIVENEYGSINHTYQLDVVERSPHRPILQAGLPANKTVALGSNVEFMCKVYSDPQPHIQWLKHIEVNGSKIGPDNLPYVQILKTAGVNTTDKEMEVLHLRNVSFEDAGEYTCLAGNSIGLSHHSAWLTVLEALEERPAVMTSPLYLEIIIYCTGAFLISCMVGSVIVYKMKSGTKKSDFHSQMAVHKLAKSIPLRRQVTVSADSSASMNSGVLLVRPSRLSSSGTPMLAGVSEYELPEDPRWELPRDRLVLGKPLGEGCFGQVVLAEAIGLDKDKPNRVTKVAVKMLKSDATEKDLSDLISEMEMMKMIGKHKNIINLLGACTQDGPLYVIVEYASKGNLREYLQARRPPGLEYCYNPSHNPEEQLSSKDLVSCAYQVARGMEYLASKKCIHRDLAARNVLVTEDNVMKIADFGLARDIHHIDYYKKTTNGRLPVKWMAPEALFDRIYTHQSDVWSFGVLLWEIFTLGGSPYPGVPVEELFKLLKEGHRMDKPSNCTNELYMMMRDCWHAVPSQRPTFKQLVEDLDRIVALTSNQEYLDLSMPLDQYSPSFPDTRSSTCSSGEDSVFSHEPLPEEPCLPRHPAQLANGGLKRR

As for `CCn1ncc2c1CCC(Nc1nc3c(-c4cncc(Cl)c4)cccn3n1)C2` (stereo not shown) [Example 73, [8-(5-Chloro-pyridin-3-yl)-[1,2,4]triazolo[1,5-a]pyridine-2-yl]-(1-ethyl-4,5,6,7-tetrahydro-1H-indazol-5-yl)-amine], the “No. of kinases with <40% inhibition” value with panel of 15 kinases was 8/15. Moreover, the inhibition (as a rule, the relative decrease from the control value, in per cent) at 10 µM on AURKA (Aurora A) (setting [1]) is above 80%; on AURKA (Aurora A) (setting [2]) it was 85%; on ABL1 (setting [3]), below 40%; at ABL1 (setting [4]), 21%; at FGFR1 (setting [5]), below 40%; on FGFR1 (setting [6]), 32%.

In the case of `CCn1ncc2c1CCC(Nc1nc3c(-c4ccc(C)nc4)cccn3n1)C2` (stereo not shown) [Example 67, (1-Ethyl-4,5,6,7-tetrahydro-1H-indazol-5-yl)-[8-(6-methyl-pyridin-3-yl)-[1,2,4]triazolo[1,5-a]pyridine-2-yl]-amine], the “No. of kinases with <40% inhibition” value in the test on panel of 15 kinases was 14/15. In addition, the inhibition at 10 µM at AURKA (Aurora A) (setting [1]) was below 40%; at AURKA (Aurora A) (setting [2]), 6%; at ABL1 (setting [3]) it was below 40%; at ABL1 (setting [4]) it was 11%; on FGFR1 (setting [5]) it was below 40%; at FGFR1 (setting [6]), 21%.

As for `CCn1ncc2c1CC[C@H](Nc1nc3c(-c4ccc(F)c(Cl)c4)cccn3n1)C2` [Example S-61, (S)-[8-(3-Chloro-4-fluoro-phenyl)-[1,2,4]triazolo[1,5-a]pyridine-2-yl]-(1-ethyl-4,5,6,7-tetrahydro-1H-indazol-5-yl)-amine], the “No. of kinases with <40% inhibition” value in the test with panel of 15 kinases is listed as 15/15. Also, the inhibition at 10 µM at AURKA (Aurora A) (setting [1]) was below 40%; at AURKA (Aurora A) (setting [2]), -21%; at ABL1 (setting [3]), below 40%; at ABL1 (setting [4]), 13%; on FGFR1 (setting [5]) it was below 40%; at FGFR1 (setting [6]), 13%.

For `CCn1ncc2c1CCC(Nc1nc3c(-c4cccnc4OC)cccn3n1)C2` (stereo not shown) [Example 69, (1-Ethyl-4,5,6,7-tetrahydro-1H-indazol-5-yl)-[8-(2-methoxy-pyridin-3-yl)-[1,2,4]triazolo[1,5-a]pyridine-2-yl]-amine], in the test with panel of 15 kinases, the “No. of kinases with <40% inhibition” value was 15/15. Moreover, the inhibition at 10 µM is below 40% at AURKA (Aurora A) (setting [1]); 25% on AURKA (Aurora A) (setting [2]); below 40% on ABL1 (setting [3]); 13% at ABL1 (setting [4]); below 40% on FGFR1 (setting [5]); 20% on FGFR1 (setting [6]).
